In US20240408096A1, “DOSING REGIMENS FOR ORAL ALK2 KINASE INHIBITORS” (BioCryst Pharmaceuticals, Inc., priority 2020, published 2024):

Columns and labels:
[1] = Phase 1 Part 2 (MAD) safety and tolerability; type: in vivo, human; conditions: healthy subjects
Method: The primary outcome measure of Part 1 and Part 2 will be: (1) measurement of the safety and tolerability by subject incidence of graded treatment-emergent adverse events (TEAEs), laboratory abnormalities, and changes to vital signs, ECGs, cardiac telemetry, and physical examination findings.
(§1) Four sequential MAD cohorts were dosed.
For each cohort of Part 2, the daily dose of study drug was administered as a single dose (1 time daily or QD). Similar to Part 1 of the study, following a screening period to determine eligibility, subjects in each cohort entered the CRU on the […] of Day −1. Study eligibility was re-confirmed upon admission to the CRU, and subjects remained in the CRU overnight prior to dosing on Day 1. Subjects received a final morning dose of study drug on the last day of dosing. Subjects were discharged from the CRU following sample collection on Day 11. Dosage administration was supervised by study personnel and all subjects completed dosing per protocol. […] Subjects returned to the CRU on Day 23 (+2 days) for final follow-up safety assessments.

[2] = tested on: G-protein coupled receptor (GPCRs) related kinases; assay: off-target screening study
[3] = nonclinical PK / toxicokinetic assessments; type: in vivo
[4] = plasma protein binding, dog; type: in vitro ADME; conditions: in vitro
[5] = ECG / QTc after oral administration to dogs; type: in vivo, dog; conditions: HEDs up to 667 mg based on a 60 kg subject
[6] = Phase 1 Part 2 (MAD) urinary PK; type: in vivo, human; conditions: for CLR,0-6 / CLR,6-12 / CLR,32-24 / CLR,144-150 / CLR,150-156 / CLR,156-168 / Cum % excreted0-168 / CumAe0-168: Part 2 MAD, geometric mean (CV%); for CumAe0-168: urine 0 to 168 hours
Method: as §1
Urine samples were collected according to the schedule in Tables 4 and 5 for Parts 1 and 2, respectively. The pre-dose sample on Day 1 was collected any time in the 2 hours prior to dosing. A 30-minute window was allowed around collection intervals.

CYP2B6 = biological target: T1, CYP2B6 (Homo sapiens, UniProt P20813); assay: CYP inhibition in vitro; type: in vitro ADME
T1 sequence (P20813 1-491): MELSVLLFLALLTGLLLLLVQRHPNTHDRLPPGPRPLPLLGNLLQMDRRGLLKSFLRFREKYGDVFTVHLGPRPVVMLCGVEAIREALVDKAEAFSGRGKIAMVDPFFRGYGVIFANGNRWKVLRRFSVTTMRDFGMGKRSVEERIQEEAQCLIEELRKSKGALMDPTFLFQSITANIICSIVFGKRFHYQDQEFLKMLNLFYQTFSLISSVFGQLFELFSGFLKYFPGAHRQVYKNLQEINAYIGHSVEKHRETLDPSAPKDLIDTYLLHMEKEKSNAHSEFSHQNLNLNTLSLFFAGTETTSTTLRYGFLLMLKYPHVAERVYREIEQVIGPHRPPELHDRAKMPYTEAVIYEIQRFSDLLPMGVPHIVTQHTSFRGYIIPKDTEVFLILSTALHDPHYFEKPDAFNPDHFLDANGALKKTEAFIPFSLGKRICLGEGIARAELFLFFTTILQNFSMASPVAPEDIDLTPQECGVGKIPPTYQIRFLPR

[7] = rat micronucleus-comet genotoxicity assays; conditions: in vivo
[8] = Phase 1 Parts 1 and 2 Holter ECG pharmacodynamics / exposure-response; type: in vivo, human
Method: ECGs were obtained according to the schedule in Tables 4 and 5 for Parts 1 and 2, respectively. A standard bedside 12-lead ECG machine or telemetry system that calculates HR and measures the PR, QRS, QT, RR, and QTc (QTcF) intervals was used. The acceptable deviations from the nominal ECG measurement time points were: re-dose: ≤2 hours before dosing; post dose: ±15 minutes from the nominal post-dose time point; and discharge: ±1 hour from the nominal time point.
Where possible, Holter-obtained and adjudicated ECGs were used to determine the change from baseline in mean differences in QTcF between each active treatment chosen to be analyzed relative to that obtained on subjects receiving placebo within a study part (for Part 2, within each cohort). At each time point Holter ECGs are analyzed, an individual subject's change from baseline will be calculated as:
Δik=(QTcF for subject I at time point k−Baseline QTcF), where QTcF measurements will be the average of triplicate ECGs at each time point. Baseline QTcF is the average of all pre-dose values.

[9] = in vitro genotoxicity: numerical chromosomal aberrations; type: cell-based
[10] = metabolism by liver S9 fraction; type: in vitro ADME; conditions: animal and human liver S9 fraction
[11] = plasma protein binding, human; type: in vitro ADME; conditions: in vitro
[12] = safety pharmacology studies (CNS, respiratory, cardiovascular); type: in vivo; conditions: HEDs exceeding likely human daily clinical dose ranges (5 to 200 mg)
CYP2C9 = CYP2C9 (Homo sapiens, UniProt P11712); assay: CYP inhibition in vitro; type: in vitro ADME
Chain of CYP2C9 (P11712 whole entry): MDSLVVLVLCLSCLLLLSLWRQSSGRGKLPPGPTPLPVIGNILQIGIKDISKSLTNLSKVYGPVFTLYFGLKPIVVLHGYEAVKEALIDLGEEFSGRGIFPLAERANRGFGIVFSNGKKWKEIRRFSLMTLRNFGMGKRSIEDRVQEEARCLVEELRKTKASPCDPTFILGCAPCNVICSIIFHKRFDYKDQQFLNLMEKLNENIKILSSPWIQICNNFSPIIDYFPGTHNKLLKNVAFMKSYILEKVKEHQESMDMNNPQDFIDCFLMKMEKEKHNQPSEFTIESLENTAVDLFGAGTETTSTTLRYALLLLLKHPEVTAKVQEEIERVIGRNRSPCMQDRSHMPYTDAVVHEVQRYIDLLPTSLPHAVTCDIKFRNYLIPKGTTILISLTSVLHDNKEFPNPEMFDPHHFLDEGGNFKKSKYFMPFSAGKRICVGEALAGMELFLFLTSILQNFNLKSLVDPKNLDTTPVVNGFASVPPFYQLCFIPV

[13] = plasma protein binding, rat; type: in vitro ADME; conditions: in vitro
[14] = Parts 1 and 2, model included placebo

In the case of `COc1cc(-n2cnc(Nc3nc(N4CCC[C@H]4C(N)=O)nc4sccc34)c2)cc(OC)c1OC.O=C(O)CC(O)(CC(=O)O)C(=O)O` [Compound A], the “grade 3 or 4 adverse events” value ([1]; Part 2, 5 mg to 20 mg QD over 7 days) is reported as “no grade 3 or 4 adverse events”, the safety and tolerability ([1]; Part 2, multiple ascending oral doses 5 mg to 20 mg QD over 7 days) is reported as “safe and generally well tolerated” and the off-target effects [2] is reported as “minimal off-target effects”. The oral bioavailability ([3]; nonclinical PK studies) was “orally bioavailable”, the “accumulation with repeated dosing” value ([3]; repeated dosing up to 28 days, toxicokinetic assessments) was “do not accumulate” and the plasma protein binding [4] was at least 99.9%. The “prolongation of corrected QT interval (QTc) or other ECG changes” value [5] was “did not induce prolongation of corrected QT interval (QTc)”, the “cumulative amount of parent compound excreted in the urine” value ([6]; Part 2, 5 to 20 mg QD) was “less than 1%” and the “CLR,0-6” value ([6]; 5 mg QD) was 17.16 (90.4) mL/h. The “CLR,6-12” value ([6]; 5 mg QD) was 11.11 (152.2) mL/h, the “CLR,32-24” value ([6]; 5 mg QD) was 12.32 (83.5) mL/h and the “CLR,144-150” value ([6]; 5 mg QD) was 22.90 (79.5) mL/h. The “CLR,150-156” value ([6]; 5 mg QD) was 10.85 (144.3) mL/h, the “CLR,156-168” value ([6]; 5 mg QD) was 10.66 (114.9) mL/h and the “Cum % excreted0-168” value ([6]; 5 mg QD) was 0.2515 (114.5) %. For the same compound, the CumAe0-168 ([6]; 5 mg QD) was 88,030 (114.5) ng, the “CLR,0-6” value ([6]; 10 mg QD) was 9.850 (75.1) mL/h and the “CLR,6-12” value ([6]; 10 mg QD) was 5.468 (73.0) mL/h. The “CLR,32-24” value ([6]; 10 mg QD) was 5.694 (65.7) mL/h, the “CLR,144-150” value ([6]; 10 mg QD) was 12.01 (64.4) mL/h and the “CLR,150-156” value ([6]; 10 mg QD) was 4.787 (168.5) mL/h. For the same compound, the “CLR,156-168” value ([6]; 10 mg QD) was 3.480 (152.2) mL/h, the “Cum % excreted0-168” value ([6]; 10 mg QD) was 0.1209 (66.5) % and the CumAe0-168 ([6]; 10 mg QD) was 84,600 (66.5) ng. The “CLR,0-6” value ([6]; 15 mg QD) was 14.19 (131.3) mL/h, the “CLR,6-12” value ([6]; 15 mg QD) was 7.172 (100.3) mL/h and the “CLR,32-24” value ([6]; 15 mg QD) was 6.837 (92.5) mL/h. For the same compound, the “CLR,144-150” value ([6]; 15 mg QD) was 11.49 (171.8) mL/h, the “CLR,150-156” value ([6]; 15 mg QD) was 8.596 (123.2) mL/h and the “CLR,156-168” value ([6]; 15 mg QD) was 6.846 (93.4) mL/h. The “Cum % excreted0-168” value ([6]; 15 mg QD) was 0.1676 (89.5) %, the CumAe0-168 ([6]; 15 mg QD) was 176,000 (89,5) ng and the “CLR,0-6” value ([6]; 20 mg QD) was 13.36 (76.2) mL/h. For the same compound, the “CLR,6-12” value ([6]; 20 mg QD) was 9.673 (64.5) mL/h, the “CLR,32-24” value ([6]; 20 mg QD) was 7.595 (39.1) mL/h and the “CLR,144-150” value ([6]; 20 mg QD) was 15.28 (85.8) mL/h. For the same compound, the “CLR,150-156” value ([6]; 20 mg QD) was 7.978 (54.7) mL/h, the “CLR,156-168” value ([6]; 20 mg QD) was 4.674 (146.4) mL/h and the “Cum % excreted0-168” value ([6]; 20 mg QD) was 0.1705 (47.2) %. For the same compound, the CumAe0-168 ([6]; 20 mg QD) was 238,600 (47.2) ng, the CYP2B6 inhibition (CYP2B6) was “not an inhibitor” and the micronucleus-comet genotoxicity [7] was “negative”. The “slope of ΔQTcF-concentration model” value ([8]; Parts 1 and 2) was 0.0002, the “ΔQTcF-concentration model fit line and confidence boundaries” value ([8]; Parts 1 and 2) was “below 10 msec” and the “slope of ΔHR-concentration model” value [8, 14] was 0.0004. For the same compound, the “slope of ΔPR-concentration model” value [8, 14] was −0.0033, the “slope of ΔQRS-concentration model” value [8, 14] was 0.0004 and the “model predicted HR changes” value ([8]; at all concentrations) was under 1 bpm. For the same compound, the “model predicted PR changes” value ([8]; at all concentrations) was “less than 2 msec”, the “effect on the ECG (12-lead Holter monitoring)” value ([8]; single doses up to 25 mg and multiple daily doses over 7 days up to 20 mg) was “absence of a clinically significant effect” and the “induction of numerical chromosomal aberrations” value [9] was “negative”. The “metabolism / human-specific metabolites” value [10] was “metabolized by animal and human liver S9 fraction with no apparent human-specific metabolites”, the plasma protein binding [11] was at least 99.9% and the “adverse central nervous system, respiratory, or cardiovascular issues” value [12] was “no adverse central nervous system, respiratory, or cardiovascular issues”. The CYP2C9 inhibition (CYP2C9) was “is an inhibitor” and the plasma protein binding [13] was at least 99.9%.
